{"source": "patent US10294202B2", "about": "“Pyrrolidinones as herbicides” (FMC Corporation, priority 2013, dated 2019)", "key": {"barnyardgrass": {"tested_on": "barnyardgrass", "assay": "Test E preemergence herbicide test", "assay_type": "in vivo, Echinochloa crus-galli", "parameters": "key: 0 = no effect, 100 = complete control", "how_it_was_run": "(§1)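 Seeds were sown in silt loam soil and treated preemergence with test chemicals in a non-phytotoxic solvent mixture containing a surfactant. Plants were kept in a greenhouse for 21 days, then visually rated against untreated controls on a 0–100 scale (0 = no effect, 100 = complete control).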"}, "oilseed rape": {"tested_on": "oilseed rape", "assay": "Test D pre-/postemergence herbicide test", "assay_type": "in vivo, Brassica napus", "conditions": "Postemergence, Oilseed Rape, scale 0 to 100", "how_it_was_run": "(§2)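 Postemergence sprays were made on plants at the 1- to 4-leaf stage in peat-based medium, and preemergence sprays on seeds planted in silt loam. The formulation was a non-phytotoxic solvent mixture containing surfactant. Plants were compared with controls after 7 to 21 days and rated visually on a 0–100 scale.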"}, "sunflower": {"tested_on": "sunflower", "assay": "Test C pre-/postemergence herbicide test", "assay_type": "in vivo, Helianthus annuus", "conditions": "Preemergence", "description": "Seeds of plant species selected from blackgrass (Alopecurus myosuroides), ryegrass, Italian (Italian ryegrass, Lolium multiflorum), wheat (winter wheat, Triticum aestivum), galium (catchweed bedstraw, Galium aparine), corn (Zea mays), crabgrass, large (large crabgrass, Digitaria sanguinalis), foxtail, giant (giant foxtail, Setaria faberii), johnsongrass (Sorghum halepense), lambsquarters (Chenopodium album), morningglory (Ipomoea coccinea), nutsedge, yellow (yellow nutsedge, Cyperus esculentus), pigweed (Amaranthus retroflexus), ragweed (common ragweed, Ambrosia elatior), soybean (Glycine max), barnyardgrass (Echinochloa crus-galli), oilseed rape (Brassica napus), waterhemp (common waterhemp, Amaranthus rudis), kochia (Kochia scoparia), oat, wild (wild oat, Avena fatua), surinam grass (Brachiaria decumbens), foxtail, green (green foxtail, Setaria viridis), goosegrass (Eleusine indica), bromegrass, downy (downy bromegrass, Bromus tectorum), nightshade (eastern black nightshade, Solanum ptycanthum), cocklebur (common cocklebur, Xanthium strumarium), cupgrass, woolly (woolly cupgrass, Eriochloa villosa), bermudagrass (Cynodon dactylon), sunflower, (common oilseed sunflower, Helianthus annuus), Russian thistle (Salsola kali) and velvetleaf (Abutilon theophrasti) were planted into a blend of loam soil and sand and treated preemergence with test chemicals formulated in a non-phytotoxic solvent mixture which included a surfactant. At the same time, plants selected from these crop and weed species and also barley (winter barley, Hordeum vulgare), […]), chickweed (common chickweed, Stellaria media), deadnettle (henbit deadnettle, Lamium amplexicaule), and canarygrass (littleseed canarygrass, Phalaris minor) were planted in pots containing Redi-Earth® planting medium (Scotts Company, 14111 Scottslawn Road, Marysville, Ohio 43041) comprising spaghnum peat moss, vermiculite, wetting agent and starter nutrients and treated with postemergence applications of test chemicals formulated in the same manner. Plants ranged in height from 2 to 18 cm (1- to 4-leaf stage) for postemergence treatments. Treated plants and controls were maintained in a greenhouse for 13 to 15 days, after which time all species were compared to controls and visually evaluated. Plant response ratings, summarized in Table C, are based on a scale of 0 to 100 where 0 is no effect and 100 is complete control. A dash (-) response means no test result."}, "kochia": {"tested_on": "kochia", "assay": "Test D pre-/postemergence herbicide test", "assay_type": "in vivo, Kochia scoparia", "conditions": "Postemergence, Kochia, scale 0 to 100", "how_it_was_run": "as §2"}, "chamomile": {"tested_on": "chamomile", "assay": "Test D pre-/postemergence herbicide test", "assay_type": "in vivo, Matricaria inodora", "conditions": "Postemergence, Chamomile, scale 0 to 100", "how_it_was_run": "as §2"}, "morningglory": {"tested_on": "morningglory", "assay": "Test E preemergence herbicide test", "assay_type": "in vivo, Ipomoea coccinea", "parameters": "key: 0 = no effect, 100 = complete control", "how_it_was_run": "as §1"}, "[1]": {"conditions": "125 g ai/ha, scale 0 to 100 (0 no effect, 100 complete control)"}}}
{"smiles": "O=C1NCC(c2ccc(F)c(F)c2)C1C(=O)Nc1cccc(F)c1F", "note": "(stereo not drawn) [Compound 17, N-(2,3-difluorophenyl)-4-(3,4-difluorophenyl)-2-oxo-3-pyrrolidinecarboxamide]", "values": [{"measurement": "Plant response rating, Barnyardgrass", "setting": "barnyardgrass; 16 g ai/ha", "result": 0}, {"measurement": "Plant response rating, Barnyardgrass", "setting": "barnyardgrass; 31 g ai/ha", "result": 0}, {"measurement": "Plant response rating, Barnyardgrass", "setting": "barnyardgrass; 62 g ai/ha", "result": 80}, {"measurement": "Plant response rating, Barnyardgrass", "setting": "barnyardgrass; 125 g ai/ha", "result": 95}, {"measurement": "Plant response rating, Barnyardgrass", "setting": "barnyardgrass; 250 g ai/ha", "result": 98}, {"measurement": "Plant response rating", "setting": "oilseed rape; 16 g ai/ha", "result": 0}, {"measurement": "Plant response rating", "setting": "oilseed rape; 31 g ai/ha", "result": 0}, {"measurement": "Plant response rating", "setting": "oilseed rape; 62 g ai/ha", "result": 10}, {"measurement": "Plant response rating", "setting": "oilseed rape; 125 g ai/ha", "result": 20}, {"measurement": "Plant response rating", "setting": "oilseed rape; 250 g ai/ha", "result": 40}, {"measurement": "Plant response rating, Sunflower", "setting": "sunflower; 62 g ai/ha, scale 0 to 100", "result": 10}, {"measurement": "Plant response rating, Sunflower", "setting": "sunflower; [1]", "result": 20}, {"measurement": "Plant response rating", "setting": "kochia; 16 g ai/ha", "result": 0}, {"measurement": "Plant response rating", "setting": "kochia; 31 g ai/ha", "result": 0}, {"measurement": "Plant response rating", "setting": "kochia; 62 g ai/ha", "result": 20}, {"measurement": "Plant response rating", "setting": "kochia; 125 g ai/ha", "result": 20}, {"measurement": "Plant response rating", "setting": "kochia; 250 g ai/ha", "result": 40}, {"measurement": "Plant response rating", "setting": "chamomile; 16 g ai/ha", "result": 0}, {"measurement": "Plant response rating", "setting": "chamomile; 31 g ai/ha", "result": 0}, {"measurement": "Plant response rating", "setting": "chamomile; 62 g ai/ha", "result": 0}, {"measurement": "Plant response rating", "setting": "chamomile; 125 g ai/ha", "result": 0}, {"measurement": "Plant response rating", "setting": "chamomile; 250 g ai/ha", "result": 0}]}
{"smiles": "O=C1NCC(c2ccc(Cl)c(Cl)c2)C1C(=O)Nc1ccccc1F", "note": "(racemic) [Compound 14]", "values": [{"measurement": "Plant response rating, Barnyardgrass", "setting": "barnyardgrass; 16 g ai/ha", "result": 0}, {"measurement": "Plant response rating, Barnyardgrass", "setting": "barnyardgrass; 31 g ai/ha", "result": 0}, {"measurement": "Plant response rating, Barnyardgrass", "setting": "barnyardgrass; 62 g ai/ha", "result": 0}, {"measurement": "Plant response rating, Barnyardgrass", "setting": "barnyardgrass; 125 g ai/ha", "result": 40}, {"measurement": "Plant response rating, Barnyardgrass", "setting": "barnyardgrass; 250 g ai/ha", "result": 75}, {"measurement": "Plant response rating, Sunflower", "setting": "sunflower; 62 g ai/ha, scale 0 to 100", "result": 0}, {"measurement": "Plant response rating, Sunflower", "setting": "sunflower; [1]", "result": 0}, {"measurement": "Plant response rating, Morningglory", "setting": "morningglory; 16 g ai/ha", "result": 0}, {"measurement": "Plant response rating, Morningglory", "setting": "morningglory; 31 g ai/ha", "result": 0}, {"measurement": "Plant response rating, Morningglory", "setting": "morningglory; 125 g ai/ha", "result": 0}, {"measurement": "Plant response rating, Morningglory", "setting": "morningglory; 250 g ai/ha", "result": 0}]}
